Assay results taken from publication PMC12386606, “Evaluation of the In Vitro Blood–Brain Barrier Transport of Ferula persica L. Bioactive Compounds” (International Journal of Molecular Sciences, 2025).

Assays:
[1] = oil/water partition coefficient; Table 1; ref PubChem; cited from earlier work
[2] = Parallel artificial membrane permeability assay for the blood–brain barrier (PAMPA-BBB); conditions: for AerExt log Pe: compound within AerExt donor solution; for AerExt log Pe / RootExt log Pe: 37 °C, 4 h, PBS pH 7.4, n.q. = not quantified in the acceptor plate; for RootExt log Pe: compound within RootExt donor solution; for Papp at 4 h: PAMPA, pH 7.4; for AerExt Cross BBB Potential: compound within AerExt; for AerExt Cross BBB Potential / RootExt Cross BBB Potential: PAMPA-BBB; for RootExt Cross BBB Potential: compound within RootExt
Description: The permeability of bioactive compounds from AerExt and RootExt across the BBB was assessed using the PAMPA-BBB assay, following the methodology described by [11]. Firstly, the BBB solution was prepared by dissolving 8 mg of PBL and 4 mg of cholesterol in 600 μL of n-dodecane. The initial donor solution was prepared by mixing 1 mL of AerExt or RootExt (at 10 mg mL^−1 in EtOH) with 1 mL of buffer (PBS, pH = 7.4, 10 mM). The filter membrane of the donor plate was coated with 5 μL of BBB solution. The acceptor plate was filled with 350 μL of buffer, and the donor plate was carefully placed on top of the acceptor plate to form a “sandwich-like” assembly. Subsequently, 350 μL of the donor solution was added to the donor plate, which was then covered and incubated at 37 °C for 4 h in the dark. After the incubation time, 300 μL of the solution was collected from each plate, transferred into separate vials, and evaporated using a SpeedVac system at 40 °C under 13 mbar pressure. The dried acceptor and donor solutions were dissolved in 50 μL of pure EtOH before being subjected to HPLC-Q-TOF-MS/MS and GC-Q-TOF-MS analysis. Permeability (Pe) across the PAMPA-BBB of the bioactive compound was calculated according to Equation (1) [54], with modifications in concentration rates.Pe = −ln[1 − CA(t)/Cequilibrium]/(A × (1/VD + 1/VA) × t)(1)
Cequilibrium was calculated according to Equation (2):Cequilibrium = [CD(t) × VD + CA(t) × VA]/(VD + VA)(2)
The HPLC-MS and GC-MS chromatograms were processed using the Agilent Mass Hunter Qualitative software (version B.10.0) to verify the retention time and exact mass of the compounds previously reported by us [25] and to extract their peak area to calculate the BBB permeability.

[3] = test system: HBMEC cells; assay: Blood–brain barrier transport study in HBMEC Transwell monolayer; conditions: n.q. = not quantified in the basolateral compartment; for AerExt Te (%) ± SD 2 h / AerExt Te (%) ± SD 4 h / AerExt Te (%) ± SD 24 h: AerExt 40 µg mL^−1 apical; for RootExt Te (%) ± SD 2 h / RootExt Te (%) ± SD 4 h / RootExt Te (%) ± SD 24 h: RootExt 20 µg mL^−1 apical
Description: After the toxicity evaluation, the HBMEC cell line was also used as a simplified in vitro model of the BBB endothelium. Cells were seeded at a density of 1.6 × 10^5 cells/cm^2 in 12-well Transwell® plates (Corning Costar Corp., Corning, USA) with a pore diameter of 0.4 μm, pre-coated with type I rat tail collagen (100 μg mL^−1) [55]. The culture medium was renewed every 2 days until a monolayer cell structure was formed (see Supplementary Figure S2), and transport experiments were initiated after 10 days. In transport experiments, the medium in the apical (upper) compartment of the Transwell system was removed, and 0.5 mL of AerExt or RootExt at a concentration of 40 μg mL^−1 and 20 μg mL^−1, respectively, was added to these compartments (applied in duplicate). Also, a medium containing 0.4% (v/v) ethanol was used as control group. The basolateral (lower) compartments were filled with 1.5 mL of fresh culture medium. The cells were incubated under these conditions for 2, 4, and 24 h.
At the end of the incubation periods, media samples were collected from both chambers and lyophilized using a freeze-drying system from Martin Christ (Osterode am Harz, Germany). The samples were stored at −80 °C until analysis. The collected samples were subjected to chemical analyses to evaluate the ability of bioactive compounds contained in the extracts to pass through the cell monolayer.
The transport efficiency (Te) of bioactive substances was calculated based on Equation (3), described by [56]:Te (%) = CLower/CUpper × 100(3)
This calculation was performed to understand whether the compound crosses the cell layer and how efficiently it is transported.
For this purpose, 0.2 mL of cold water (H2O) was added to the samples, and the samples were vortexed for 10 s. Then, 0.8 mL of cold methanol was added and vortexed again for 10 s. Then, the mixture was centrifuged at 14,000 rpm for 5 min, and the supernatant was carefully transferred to a 1.5 mL Eppendorf tube and dried in a SpeedVac device at 40 °C and 13 bar pressure. Finally, the dried samples were resuspended in 25 μL of pure ethanol for their subsequent analysis.
For HPLC-Q-TOF MS/MS analysis, aliquots of 2 μL were injected into an HPLC model 1290 coupled to a Q-TOF series 6540 (Agilent Technologies, Waldbronn, Germany). For GC-Q-TOF MS analysis, aliquots of 1 μL were injected with a split ratio of 1:10 into a GC model 7890B coupled to a Q-TOF series 7200 (Agilent Technologies, Waldbronn, Germany). The HPLC-MS and GC-MS chromatograms were processed using the Agilent Mass Hunter Qualitative software (version B.10.0) to verify the retention time and exact mass of the compounds previously reported by us [25] and to extract their peak area to calculate the BBB permeability.

SMILES	log p [1]	AerExt log Pe [2]	RootExt log Pe [2]	other results
CC(C)=CCCC(C)(O)[C@H]1CC[C@]2(C)[C@@H]1[C@H](O)C[C@@H]1[C@@]3(C)CC[C@H](O)C(C)(C)[C@@H]3CC[C@]12C (stereo in doubt) [Protopanaxadiol]	7.2	n.q.	n.q.	
COc1ccc(O)c(C=O)c1 [2-hydroxy-5-methoxybenzaldehyde]	1.8			AerExt Te (%) ± SD 2 h [3]: 18.8 ± 2.3%; AerExt Te (%) ± SD 4 h [3]: 9.1 ± 1.2%; AerExt Te (%) ± SD 24 h [3]: 11.0 ± 1.3%; RootExt Te (%) ± SD 2 h [3]: 31.8 ± 8.0%; RootExt Te (%) ± SD 4 h [3]: 36.3 ± 10.9%; RootExt Te (%) ± SD 24 h [3]: 164.8 ± 21.0%
CC(=O)c1ccc(O)c(O)c1 [3,4-dihydroxyacetophenone]	1.5			Papp at 4 h [2]: 17.4 ×10⁻⁶ cm/s
CC12CCC3C(CC3(C)C)C(C)(CCC1=O)O2 (stereo not drawn) [3,7-epoxycaryophyllan-6-One]	2.8			
O=Cc1cccc(C(=O)O)c1O [3-formylsalicylic acid]	1.0		−5.50	
O=C(/C=C/c1ccc(O)c(O)c1)OC1C(O)CC2(O)CC1OC2=O (stereo not drawn) [4-caffeoylquinic acid lactone]	0.4			AerExt Cross BBB Potential [2]: + (log Pe < −6.5)
O=Cc1ccc(O)cc1 [4-hydroxybenzaldehyde]				AerExt Te (%) ± SD 2 h [3]: 23.3 ± 3.1%; AerExt Te (%) ± SD 4 h [3]: 18.5 ± 0.3%; AerExt Te (%) ± SD 24 h [3]: 49.4 ± 5.9%; RootExt Te (%) ± SD 2 h [3]: 62.1 ± 21.9%; RootExt Te (%) ± SD 4 h [3]: 57.5 ± 1.7%; RootExt Te (%) ± SD 24 h [3]: 184.6 ± 23.0%
Cc1ncsc1CCO [4-methyl-5-thiazoleethanol]	0.8			
O=c1ccc2cc(O)c(O)cc2o1 [6,7-dihydroxycoumarin]	1.2		n.q.	RootExt Cross BBB Potential [2]: –
CC(=O)OC[C@H]1O[C@@H](Oc2cc(O)c3c(=O)c(-c4ccc(O)cc4)coc3c2)[C@H](O)[C@@H](O)[C@@H]1O [6″-O-acetylgenistin]	0.9	n.q.		
COc1cc2ccc(=O)oc2cc1O [7-hydroxy-6-methoxycoumarin]	1.5			AerExt Te (%) ± SD 2 h [3]: 0.6 ± 0.2%; AerExt Te (%) ± SD 4 h [3]: 1.9 ± 0.1%; AerExt Te (%) ± SD 24 h [3]: 6.1 ± 1.5%; RootExt Te (%) ± SD 2 h [3]: n.q.; RootExt Te (%) ± SD 4 h [3]: n.q.; RootExt Te (%) ± SD 24 h [3]: n.q.
CC1=C[C@H]2[C@@H](CC1=O)[C@H](C)C[C@H](O)[C@H]2C(C)C [8-hydroxyageraphorone]	2.9			AerExt Te (%) ± SD 2 h [3]: n.q.; AerExt Te (%) ± SD 4 h [3]: n.q.; AerExt Te (%) ± SD 24 h [3]: n.q.; RootExt Te (%) ± SD 2 h [3]: n.q.; RootExt Te (%) ± SD 4 h [3]: n.q.; RootExt Te (%) ± SD 24 h [3]: 124.7 ± 16.9%
C=C(C)C(O)CCC(C)C1CCC2(C)C3CCC4C(C)(C)C(O)CCC45CC35CCC12C (stereo not drawn) [9,19-cyclolanost-25-ene-3,24-diol]	8.6	−5.60	−5.79	AerExt Cross BBB Potential [2]: + (log Pe < −6.5); RootExt Cross BBB Potential [2]: + (log Pe < −6.5)
C=CC(C)(O)CC/C=C(\C)CCC=C(C)C (stereo not drawn) [(E)-nerolidol]	4.6	n.q.	n.q.	
C[C@@H]1CCCC2=CC[C@@H]3[C@@H](C3(C)C)[C@]21C [(–)-aristolene]	4.7	n.q.	n.q.	
C=C1CC[C@H]2O[C@]2(C)CC[C@@H]2[C@@H]1CC2(C)C [(–)-caryophyllene oxide]	3.6			AerExt Te (%) ± SD 2 h [3]: 4.3 ± 0.1%; AerExt Te (%) ± SD 4 h [3]: 8.6 ± 0.6%; AerExt Te (%) ± SD 24 h [3]: 8.8 ± 0.7%; RootExt Te (%) ± SD 2 h [3]: n.q.; RootExt Te (%) ± SD 4 h [3]: n.q.; RootExt Te (%) ± SD 24 h [3]: n.q.
CC1=CCC[C@@H](C)[C@]12CC[C@@H](C(C)(C)O)C2 [Agarospirol]	3.7	n.q.	n.q.	
CC1=C2CCC(C)C2CC(C(C)(C)O)CC1 (stereo not drawn) [Bulnesol]	3.8	n.q.	n.q.	
COc1cc(-c2cc(=O)c3c(O)cc(O)cc3o2)ccc1O [Chrysoeriol]	1.7	n.q.		
COc1ccc(-c2cc(=O)c3c(O)cc(O)cc3o2)cc1O [Diosmetin]	1.7			Papp at 4 h [2]: 148 ×10⁻⁶ cm/s
C=CCc1cc(OC)c(OC)c(OC)c1 [Elemicin]	2.5			
